The target of data set [1] is T1, CPT1 (Mus musculus, UniProt P97742).
T1 construct: A small piece of frozen liver (appr. 200 mg) was homogenized in 600 μl of cold sucrose buffer; from tissue; host or cells: liver of BNX mice (mitochondrial enriched fraction)
T1 sequence (P97742 1-773): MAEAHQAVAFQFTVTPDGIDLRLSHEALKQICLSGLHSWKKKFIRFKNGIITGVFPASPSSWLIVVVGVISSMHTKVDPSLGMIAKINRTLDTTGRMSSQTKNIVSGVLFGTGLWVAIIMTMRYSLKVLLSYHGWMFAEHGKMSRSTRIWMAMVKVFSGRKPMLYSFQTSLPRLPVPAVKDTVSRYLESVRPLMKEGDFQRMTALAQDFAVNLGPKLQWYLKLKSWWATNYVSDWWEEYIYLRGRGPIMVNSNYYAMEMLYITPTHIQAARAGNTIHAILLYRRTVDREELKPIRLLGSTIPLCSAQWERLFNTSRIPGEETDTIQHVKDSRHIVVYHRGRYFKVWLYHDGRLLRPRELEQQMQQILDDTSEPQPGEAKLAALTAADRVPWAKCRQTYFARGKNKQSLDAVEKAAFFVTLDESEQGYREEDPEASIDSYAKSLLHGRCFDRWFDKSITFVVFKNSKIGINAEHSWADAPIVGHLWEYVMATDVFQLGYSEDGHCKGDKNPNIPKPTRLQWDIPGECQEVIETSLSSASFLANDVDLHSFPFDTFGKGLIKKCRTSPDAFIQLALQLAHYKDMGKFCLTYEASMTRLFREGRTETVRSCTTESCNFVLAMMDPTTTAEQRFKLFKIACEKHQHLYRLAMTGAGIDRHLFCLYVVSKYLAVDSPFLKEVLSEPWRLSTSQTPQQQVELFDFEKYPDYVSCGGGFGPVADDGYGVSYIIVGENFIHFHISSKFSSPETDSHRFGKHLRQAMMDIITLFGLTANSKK
The data set is described as follows: CPT1 activity in liver of BNX mice after three weeks topical treatment. In kind it is in vivo. The note with it: 3 weeks, placebo set 100%. The procedure: (§1) The psoriasis model described by Wrone-Smith and Nickoloff (1996) was used. 5 mm non-lesional skin biopsies from five psoriatic patients were each split in four pieces and transplanted on 20 immuno-deficient BNX mice, i.e. four groups of five mice each. Psoriasis was induced in all mice by injection with donors super-antigen-activated blood cells. After psoriasis had developed, mice were treated for 3 weeks by applying either placebo-cream, cream containing a corticosteroid (betamethasone), 1% Etomoxir or 30% Etomoxir daily on the skin. The cream containing 30% Etomoxir was removed after 30 minutes while the other creams were left on the skin.
(§2) After the treatment period, liver and blood of the mice were analyzed for their CPT1 activity and GOT/GPT levels. Furthermore, the epidermal thickness, in particular the depth of reti ridges, the number of Ki67 positive cells and the percentage of ULEX-positive cells (this marker stains the upper layers of the epidermis in normal skin and the whole epidermis in psoriatic skin) in the epidermis were determined.
(§3) A small piece of frozen liver (appr. 200 mg) was homogenized in 600 μl of cold sucrose buffer by 8-10 strokes with tight pestle of dounce homogenizer. Homogenate was centrifuged at 700×g for 10 min at 4° C. Supernatant was again centrifuged at 20000×g for 20 min at 4° C. Pellet was resuspended in 1400 μl buffer A and kept on ice for further analysis or stored at −80° C.
160 μl of bidestilled water was added to wells of a 96-well plate. For the standard curve 0 μg, 1 μg, 2 μg, 3 μg, 4 μg and 5 μg of BSA (BSA stock: 1 mg/ml from New England Biolabs) was added in duplicates to the first […]. 1 μl of the liver samples and the blood samples were added in duplicates to the wells. Finally 40 μl dye reagent concentrate (Bio-Rad protein assay) was added and mixed by pipetting up and down. After 5 to 30 min OD at 595 was measured versus reagent blank (0 μg BSA). For the calibration curve the OD was plotted against the concentration of BSA and total protein concentration of the liver samples was calculated in μg/μl.
20 μg of total protein of each liver sample and 300 μg of total protein of each plasma sample were added in 1.5 ml Eppendorf tubes (safe lock) and filled up to 100 μl with buffer A (all in duplicates). Background control was buffer A only. The tubes were preincubated for exactly 5 min at 30° C. prior to the addition of 105 μl of reaction mix. Again samples were incubated for exactly 5 min at 30° C. Reactions were stopped by adding 800 μl of 6% perchloric acid and stored on ice. […] Finally, either 100 μl (liver samples) or 150 μl (plasma samples) of the butanol phase were mixed with 1 ml Microscint0 in a 24 well-plate and cpm values were measured with the scintillation counter from Canberra Packard. […]

Data set [2] concerns CPT1. The data set is described as follows: CPT1 activity in total blood cells of BNX mice after three weeks topical treatment. In kind it is in vivo. The note with it: 3 weeks. The procedure: as §1
After the treatment period, liver and blood of the mice were analyzed for their CPT1 activity and GOT/GPT levels. Furthermore, the epidermal thickness, in particular the depth of reti ridges, the number of Ki67 positive cells and the percentage of ULEX-positive cells (this marker stains the upper layers of the epidermis in normal skin and the whole epidermis in psoriatic skin) in the epidermis were determined. […]
160 μl of bidestilled water was added to wells of a 96-well plate. […] After 5 to 30 min OD at 595 was measured versus reagent blank (0 μg BSA). For the calibration curve the OD was plotted against the concentration of BSA and total protein concentration of the liver samples was calculated in μg/μl. […]

Data set [3] relates to CPT1. The data set is described as follows: Inhibition of CPT1 activity by the salt of Etomoxir in vitro, pooled blood cell extract. In kind it is biochemical, BNX mice. The procedure: 500 μl of total blood cells were frozen and drawn three tines to break up the cells. Samples were diluted by adding 500 μl buffer A and then centrifuged at 20000×g for 20 min at 4° C. Solid Pellets were resuspended in 200 μl buffer A and kept on ice for further analysis or stored at −80° C.
(§4) 2 μl of a 100× stock of Etomoxir-salt (0; 0.1; 1.0 and 10 mM) dissolved in DMSO were added in 1.5 ml Eppendorf tubes in duplicates. 2× activation mix was premixed on ice with either 15 μg of total protein of each liver sample or 300 μg of total protein of each plasma sample (final volume per reaction was 98 μl). 98 μl of this mix was added to each tube containing the 2 μl of inhibitor and tubes were left at 30° C. for exactly 30 min. Then 105 μl of reaction mix were added to start the CPT1 reaction. Again samples were incubated for exactly 5 min at 30° C. […] Finally, either 150 μl of the butanol phase were mixed with 1 ml Microscint0 in a 24 well-plate and cpm values were measured with the scintillation counter from Canberra Packard. P values were calculated with the t-test of the SigmaPlot 2001 software.
(§5) To determine the sensitivity of the CPT1 activity in response to Etomoxir, cell pellet samples were pooled and treated with increasing amounts of Etomoxir. […] 85% of the measured activity in the blood cells was Etomoxir insensitive and therefore the relevance of this assay is questionable.

Data set [4] has as its target T1, CPT1. The data set is described as follows: Inhibition of CPT1 activity by the salt of Etomoxir in vitro, mitochondrial enriched fractions of liver. In kind it is biochemical, BNX mice. The procedure: as §3
as §4, with “min.” for “min. Then 105 μl of reaction mix were added to start the CPT1 reaction. Again samples were incubated for exactly 5 min at 30° C.”
as §5

Data set [5] has as its system transplanted human psoriasis skin. Description: Psoriasis model, hematoxyline staining (epidermal thickness). In kind it is in vivo, BNX mice. The note with it: 3 weeks, placebo 138±24 μm; for Epidermal thickness: three mice. The protocol: as §1, §2
(§6) Histological stainings are performed on cryo-preserved tissues. Diagonal cross sections (8μm) are cut (see FIG. 20), covering all skin-layers (located at the top layer are the stratum corneus and epidermis of the transplanted human biopsy and at the bottom the murine tissue is located, forming a base for the transplanted human skin).
Sections are stained with hematoxyline and evaluated at a microscopic magnification of 200×. Two sections taken round the middle of the biopsy are evaluated. Thickness measurements are performed of the total section using a microscopic ocular with intergraded graduation-lines (ruler). From this, the average epidermal thickness measurements for ridges and the average of the total epidermis (mean of ridges and inter-ridges) are calculated in μm (taken into account magnification factor).

The test system is the same in data set [6]. Description: Psoriasis model, Ki-67 staining (keratinocyte proliferation). In kind it is in vivo, BNX mice. The note with it: 3 weeks. The protocol: as §1, §2, §6
Sections are stained with mu-∝Hu monoclonal Ab and evaluated at a microscopic magnification of 400×. Two representative sections are evaluated. The total number of positive cells are counted of the total section and indicated per unit-length. A unit-length is a microscopic view (of a part of the section) at a magnification of 400× (see FIG. 20). Per section several unit-lengths are counted (minimum of 8). From this the average number of Ki-67 positive cells per unit-length is calculated.

Data set [7] has the same test system. Description: Psoriasis model, ULEX staining (keratinocyte differentiation). In kind it is in vivo, BNX mice. The note with it: 3 weeks, placebo 55±19%. The protocol: as §1, §2, §6
Sections are stained with biotinylated Europaeus Agglutinin 1 and evaluated at a microscopic magnification of 200×. Two representative sections are evaluated. The thickness of both the ULEX positive cell-layer (distribution of ULEX) as well as the ULEX negative layer of the total section is measured using a microscopic ocular with intergraded graduation-lines (ruler). From this the average ratio of ULEX positive differentiation is calculated (indicated as percentage of epidermis positive for ULUX).

Data set [8] can be described thus: Animal experiment, deaths during topical treatment. The note with it: 30% Etomoxir cream left on the skin; probably because they licked off the cream. In kind it is in vivo, BNX mice. The procedure: The psoriasis model described by Wrone-Smith and Nickoloff (1996) was used. 5 mm non-lesional skin biopsies from five psoriatic patients were each split in four pieces and transplanted on 20 immuno-deficient BNX mice, i.e. four groups of five mice each. Psoriasis was induced in all mice by injection with donors super-antigen-activated blood cells. After psoriasis had developed, mice were treated for 3 weeks by applying either placebo-cream, cream containing a corticosteroid (betamethasone), 1% Etomoxir or 30% Etomoxir daily on the skin. […]

Each structure is given as a SMILES string.

For `CCOC(=O)C1(CCCCCCOc2ccc(Cl)cc2)CO1` (stereo not shown) [Etomoxir, 2-(6-(4-chlorophenoxy)hexyl)oxirane-2-carboxylic acid ethyl ester], the “CPT1 activity in liver compared to the placebo group” value at CPT1 [1] (1% Etomoxir cream daily) is reported as 73%; on CPT1 [1] (30% Etomoxir cream daily, excluding liver of dead animals), 59%; at CPT1 [1] (30% Etomoxir cream daily, including the two dead animals), 40%. Besides, the “CPT1 activity in blood cell pellets versus placebo group” value with CPT1 [2] (1% Etomoxir cream daily, p value 0.01) is reported as “significantly higher”; in the data set with CPT1 [2] (30% Etomoxir cream daily, p value>0.05), “not significantly different”. Moreover, the “Reduction of CPT1 activity in pooled blood cell pellet samples” value in the data set with CPT1 [3] (increasing amounts of Etomoxir (salt), activity without Etomoxir = 100%) is recorded as around 15%. In addition, the “Part of the measured CPT1 activity in blood cells that is Etomoxir insensitive” value with CPT1 [3] (pooled cell pellet samples) is given as around 85%. Also, at CPT1 [4], the “Sensitivity of CPT1 activity measured in liver to Etomoxir” value is given as “highly Etomoxir sensitive”. For the same compound, the Epidermal thickness in data set [5] (1% Etomoxir cream daily) is reported as 88±10 μm; in data set [5] (30% Etomoxir cream daily (removed after 30 minutes)) it was 69±4 μm. Moreover, the “Number of Ki67 positive cells as compared to the placebo group” value in data set [6] (1% Etomoxir cream) and in data set [6] (30% Etomoxir cream) was “significant decrease” each time. The results for the “Percentage of ULEX-positive cells in the epidermis (differentiation rate)” value in data set [7] (1% Etomoxir cream) and in data set [7] (30% Etomoxir cream) were 17±11% and 18±8%, respectively. Moreover, the Deaths of animals result in data set [8] is “two out of five animals died”.
In the case of `C[C@H]1C[C@H]2[C@@H]3CCC4=CC(=O)C=C[C@]4(C)[C@@]3(F)[C@@H](O)C[C@]2(C)[C@@]1(O)C(=O)CO` [corticosteroid, betamethasone], the “CPT1 activity in liver compared to the placebo group” value at CPT1 [1] (corticosteroid (betamethasone) cream daily) was 83%. Besides, the Average epidermal thickness in data set [5] (corticosteroid cream daily) is listed as 81±9 μm. In data set [6] (corticosteroid cream daily, placebo 55±37), the “Number of Ki67 positive cells” value is 10±6 positive cells/unit-length. Further, the “Percentage of ULEX-positive cells in the epidermis” value in data set [7] (corticosteroid cream daily) is reported as 24±7%.

The values above are taken from US7528168B2, “Inhibitors of the fatty acid oxidation for the prophylaxis and/or the treatment of chronic and/or atopic skin diseases” (priority 2002, dated 2009).
